# Test results published in patent US20140308668A1, “Method of Determining Susceptibility of a Tumor Cell to a Chemotherapeutic Agent: Novel Use of Herpes SImplex Virus” (priority 2008, published 2014).
# Tests used:
# Hepatic tumor (SNU423) = conditions: cited from earlier work
# Gastric tumor (257P) = conditions: cited from earlier work
# Breast tumor (SKBR3) = conditions: cited from earlier work
# [1] = tested on: Pancreatic tumor (181/85P); conditions: cited from earlier work
# HEp-2 cells = assay: Apoptotic killing of HEp-2 tumor cells (morphological alternations and death factor processing); format: cell-based, human; conditions: for apoptotic killing (morphological alternations and death factor processing): doxorubicin 10 μM, etoposide 125 μM, data not shown
# From the text: We also examined if a different type of herpes simplex virus (i.e., HSV-2) may induce apoptotic killing of tumor cells. Standard methods were used to prepare wild-type HSV-2 (i.e., wtHSV-2). (Blaho et al.: Herpes Simplex Virus: Propagation, Quantification, and Storage. Current Protocols in Microbiology. Wiley & Sons. 14:1-23, 2005). Tumor cells (human carcinoma HEp-2) were used and infected with wtHSV-2. […] In particular, wtHSV-2 caused both the morphological alternations and death factor processing (data not shown). Thus, infection of Hs578T and HEp-2 cells with wtHSV-1 and wtHSV-2, respectively, leads to substantial apoptotic killing of tumor cells.
# We examined tumor cell killing by chemotherapeutic agents. In this study, HEp-2 cells were treated with varying amounts of doxorubicin and etoposide. Apoptotic killing was measured using the method detailed above. […] Thus, these tumor cells were sensitive to chemotherapeutic agents.
# (§1) INFECTION OF TUMOR CELLS WITH HSV MUTANTS: Approximately 1×10^6 cells (i.e., tumor cells) were exposed to 10 plaque forming units (PFU) per ml of ΔICP27 virus in 1 ml of 5% NBCS for 1 hour at 37° C. After this adsorption step, the medium was removed and discarded. 3 ml of fresh 5 NBCS was then added. Cells were maintained at 37° C. for at least 18 hours.
# MICROSCOPIC ANALYSIS OF HSV INFECTED TUMOR CELLS: The morphology of HSV infected cells was analyzed by phase contrast and fluorescence microscopy using an Olympus IX70/IX-FLA inverted fluorescence microscope. Images were acquired using a Sony DKC-5000 digital photo camera linked to a PowerMac workstation and processed through Adobe Photoshop.
# (§2) For visualization of chromatin condensation in live cells, […] Hoechst 33258 (Sigma) per ml was added to the medium and allowed to incubate at 37° C. for 30 min. The percentage (%) of nuclei containing condensed chromatin was determined by dividing the number of brightly stained, small (condensed) nuclei by the total number of nuclei (uncondensed plus condensed) in a particular (640) microscopic field. At least 100 nuclei were counted for each data point. The percentage (%) of chromatin condensation is represented as the mean±SD of three independent experiments.
# IMMUNOBLOT ANALYSIS OF HSV INFECTED TUMOR CELLS: Whole-cell protein extract was prepared using lysis buffer (50 mM Tris/HCl, pH 7.5, 150 mM NaCl, 1% Triton X-100,1% deoxycholate, 0.1% SDS) supplemented with 2 mM PMSF (freshly prepared stock), 1% Translysol, 0.1 mM L-1-chloro-3-(4-tosylamido)-4-phenyl-2-butanone, 0.01 mM L-1-chlor-3-(4-tosylamido)-7-amino-2-heptanon-hydrochloride. Protein concentrations were determined using a modified Bradford protein assay (Bio-Rad Laboratories). […]
# Ovarian tumor (ES-2) = conditions: cited from earlier work
# Hepatic tumor (Hep3B) = conditions: cited from earlier work
# Hepatic tumor (SNU182) = conditions: cited from earlier work
# Breast tumor (R193) = conditions: cited from earlier work
# Melanoma (A375) = conditions: cited from earlier work
# MCF-7 = assay: Apoptotic killing of MCF-7 breast tumor cells; format: cell-based; conditions: MCF-7 tumor cells
# Hs578T tumor cells = assay: Apoptotic killing of Hs578T tumor cells (morphological alternations by microscopy/Hoechst, death factor processing by immunoblot); format: cell-based
# Description: We have established an in vitro cell model and examined herpes simplex virus-induced apoptotic killing of tumor cells. In the first series of studies, we used a standard inducer of apoptotic killing. A protein kinase inhibitor (i.e., staurosporine) was used. Mammary tumor cells (Hs578T) were cultured and treated with staurosporine (0.1-2 μM) for about 12-18 hours. […] (FIG. 1).
# Using Hs578T cells, we next examined whether herpes simplex virus (HSV) can induce apoptotic killing in these tumor cells. Standard methods were used to prepare wild-type HSV-1 (i.e., wtHSV-1). (Blaho et al.: Herpes Simplex Virus: Propagation, Quantification, and Storage. Current Protocols in Microbiology. Wiley & Sons. 14:1-23, 2005). Hs578T cells were infected with wtHSV-1 and examined for tumor cell apoptotic killing. A range of wtHSV-1 concentration was used and we observed that one particle of wtHSV-1 was sufficient to induce apoptotic killing of a tumor cell. Apoptotic killing was evaluated at 24-hour post infection by monitoring morphological alternations and presence of death factor processing as detailed above.
# as §1, with “Cells were maintained at 37° C. for at least 18 hours.” left out
# MICROSCOPIC ANALYSIS OF HSV INFECTED TUMOR CELLS: The morphology of HSV infected cells was analyzed by phase contrast and fluorescence microscopy using an Olympus IX70/IX-FLA inverted fluorescence microscope. […]
# as §2, with “The percentage (%) of chromatin condensation is represented as the mean±SD of three independent experiments.” left out
Structure (SMILES),Resistant or Sensitive to Chemotherapeutic Agents (Hepatic tumor (SNU423)),Resistant or Sensitive to Chemotherapeutic Agents (Gastric tumor (257P)),Resistant or Sensitive to Chemotherapeutic Agents (Breast tumor (SKBR3)),Resistant or Sensitive to Chemotherapeutic Agents [1],sensitivity of tumor cells to chemotherapeutic agent (HEp-2 cells),apoptotic killing (morphological alternations and death factor processing) (HEp-2 cells),Resistant or Sensitive to Chemotherapeutic Agents (Ovarian tumor (ES-2)),Resistant or Sensitive to Chemotherapeutic Agents (Hepatic tumor (Hep3B)),Resistant or Sensitive to Chemotherapeutic Agents (Hepatic tumor (SNU182)),Resistant or Sensitive to Chemotherapeutic Agents (Breast tumor (R193)),Resistant or Sensitive to Chemotherapeutic Agents (Melanoma (A375)),resistance of tumor cells to chemotherapeutic agent (drug-induced apoptosis) (MCF-7),"apoptotic effects (Hs578T tumor cells; cycloheximide alone, data not shown)","Death Factor Processing Poly(ADP-ribose) Polymerase, Procaspase 3, and DNA Fragmentation Factor-45 (Hs578T tumor cells; immunoblot)","chromatin condensation (percentage of nuclei containing condensed chromatin) (Hs578T tumor cells; staurosporine 0.1-2 μM, about 12-18 hours, mean±SD of three independent experiments) [%]"
"COc1cccc2c1C(=O)c1c(O)c3c(c(O)c1C2=O)C[C@@](O)(C(=O)CO)C[C@@H]3O[C@H]1C[C@H](N)[C@H](O)[C@H](C)O1 [Doxorubicin, doxorubicin]",Resistant,Resistant,Resistant,Resistant,sensitive,induce morphological alternations and death factor processing,Resistant,Resistant,Resistant,Resistant,Resistant,resistant,–,–,–
"C[C@@H]1C[C@@H]([C@H](O)CC2CC(=O)NC(=O)C2)C(=O)[C@@H](C)C1 [Cycloheximide, cycloheximide]",–,–,–,–,–,–,–,–,–,–,–,–,no apparent apoptotic effects,–,–
"CC(=O)O[C@H]1C(=O)[C@@]2(C)[C@H]([C@H](OC(=O)c3ccccc3)[C@]3(O)C[C@H](OC(=O)[C@H](O)[C@@H](NC(=O)c4ccccc4)c4ccccc4)C(C)=C1C3(C)C)[C@]1(OC(C)=O)CO[C@@H]1C[C@@H]2O [Paclitaxel, paclitaxel]",Sensitive,Sensitive,Sensitive,Sensitive,–,–,Resistant,Resistant,Resistant,Sensitive,Sensitive,–,–,–,–
"CN[C@@H]1C[C@H]2O[C@@](C)([C@@H]1OC)n1c3ccccc3c3c4c(c5c6ccccc6n2c5c31)C(=O)NC4 [Staurosporine, staurosporine]",–,–,–,–,–,–,–,–,–,–,–,–,–,drastic death factor processing,86±14
"O=c1[nH]cc(F)c(=O)[nH]1 [5-Fluorouracil, 5-fluorouracil]",Resistant,Resistant,Sensitive,Sensitive,–,–,Sensitive,Resistant,Resistant,Sensitive,Resistant,–,–,–,–
"COc1cc([C@@H]2c3cc4c(cc3[C@@H](O[C@@H]3O[C@@H]5CO[C@@H](C)O[C@H]5[C@H](O)[C@H]3O)[C@H]3COC(=O)[C@H]23)OCO4)cc(OC)c1O [Etoposide, etoposide]",Resistant,Resistant,Resistant,Resistant,sensitive,induce morphological alternations and death factor processing,Resistant,Resistant,Resistant,Resistant,Resistant,resistant,–,–,–
"N.N.[Cl][Pt][Cl] [Cisplatin, cisplatin]",Resistant,Resistant,Resistant,Resistant,–,–,Resistant,Resistant,Resistant,Resistant,Resistant,–,–,–,–
